Data from PubChem BioAssay AID1259407 (Chemical Carcinogenesis Research Information System (CCRIS), 2018).
The source made the active and inactive calls. The rule behind the calls is not given here.

Tested on: CCRIS mutagenicity, Ames/micronucleus/aberration tests
Experiment: CCRIS mutagenicity studies
[1] = Test System: AMES SALMONELLA TYPHIMURIUM, Strain/Indicator: TA98, Metabolic Activation: NONE, Method: PREINCUBATION
[2] = Test System: AMES SALMONELLA TYPHIMURIUM, Strain/Indicator: TA100, Metabolic Activation: NONE, Method: PREINCUBATION

`O=[N+]([O-])c1ccc(Cl)cc1` was tested, and the mutagenic call (End Point: IN VITRO CHROMOSOMAL ABERRATIONS, Test System: CHL CELLS, Metabolic Activation: NONE) was “active; positive (ploidy changes); precipitation occurred at 0.4, 0.5, and 0.6 mg/ml”, the mutagenic call (End Point: IN VITRO CHROMOSOMAL ABERRATIONS, Test System: CHL CELLS, Metabolic Activation: RAT, LIVER, S-9, SODIUM PHENOBARBITAL AND 5,6-BENZOFLAVONE) was “active; positive (structural changes); authors report equivocal results for ploidy chang” and the mutagenic call (End Point: IN VITRO CHROMOSOMAL ABERRATIONS, Test System: HUMAN PERIPHERAL LYMPHOCYTES, Metabolic Activation: NONE) was “inactive; negative”. The mutagenic call [1] was “inactive; negative”, the mutagenic call (Test System: AMES SALMONELLA TYPHIMURIUM, Strain/Indicator: TA98, Metabolic Activation: RAT, LIVER, S-9, KANECHLOR 500, Method: PREINCUBATION) was “inactive; negative” and the mutagenic call [2] was “inactive; negative”. For the same compound, the mutagenic call (Test System: Ames Salmonella typhimurium, Strain/Indicator: TA98, Metabolic Activation: None, Method: Preincubation) was “inactive; negative”, the mutagenic call (Test System: Ames Salmonella typhimurium, Strain/Indicator: TA98, Metabolic Activation: Rat, Liver, S9, Sodium phenobarbital and 5,6-benzoflavone (10%), Method: Preincubation) was “inactive; negative” and the mutagenic call (Test System: Ames Salmonella typhimurium, Strain/Indicator: TA98, Metabolic Activation: Rat, Liver, S9, Sodium phenobarbital and 5,6-benzoflavone, Method: Preincubation) was “inactive; negative”. The mutagenic call (Test System: Ames Salmonella typhimurium, Strain/Indicator: TA100, Metabolic Activation: None, Method: Preincubation) was “inactive; negative”, the mutagenic call (Test System: Ames Salmonella typhimurium, Strain/Indicator: TA1535, Metabolic Activation: None, Method: Preincubation) was “inactive; negative” and the mutagenic call (Test System: Ames Salmonella typhimurium, Strain/Indicator: TA1535, Metabolic Activation: Rat, Liver, S9, Sodium phenobarbital and 5,6-benzoflavone (10%), Method: Preincubation) was “inactive; negative”. The mutagenic call (Test System: Ames Salmonella typhimurium, Strain/Indicator: TA1537, Metabolic Activation: None, Method: Preincubation) was “inactive; negative”, the mutagenic call (Test System: Ames Salmonella typhimurium, Strain/Indicator: TA1537, Metabolic Activation: Rat, Liver, S9, Sodium phenobarbital and 5,6-benzoflavone (10%), Method: Preincubation) was “inactive; negative” and the mutagenic call (Test System: Ames Salmonella typhimurium, Strain/Indicator: TA1537, Metabolic Activation: Rat, Liver, S9, Sodium phenobarbital and 5,6-benzoflavone, Method: Preincubation) was “inactive; negative”. The mutagenic call (Test System: E. coli, Strain/Indicator: WP2uvrA/PKM101, Metabolic Activation: None, Method: Preincubation) was “inactive; negative”, the mutagenic call (Test System: E. coli, Strain/Indicator: WP2uvrA/PKM101, Metabolic Activation: Rat, Liver, S9, Sodium phenobarbital and 5,6-benzoflavone (10%), Method: Preincubation) was “inactive; negative” and the mutagenic call (Test System: E. coli, Strain/Indicator: WP2uvrA/pKM101, Metabolic Activation: None, Method: Preincubation) was “inactive; negative”. For the same compound, the mutagenic call (Test System: E. coli, Strain/Indicator: WP2uvrA/pKM101, Metabolic Activation: Rat, Liver, S9, Sodium phenobarbital and 5,6-benzoflavone, Method: Preincubation) was “inactive; negative”.

In the case of `CN1C(=O)CN=C(c2ccccc2)c2cc(Cl)ccc21`, the mutagenic call (End Point: IN VITRO MICRONUCLEUS, Test System: V79 CELLS, Metabolic Activation: NONE) was “active; positive”, the mutagenic call (End Point: IN VIVO CHROMOSOMAL ABERRATIONS, Test System: PERIPHERAL BLOOD LYMPHOCYTES, Species: HUMAN, Strain/Sex: MALE, FEMALE, Route: IV) was “inactive; negative” and the mutagenic call (Test System: AMES SALMONELLA TYPHIMURIUM, Strain/Indicator: TA97, Metabolic Activation: HAMSTER, LIVER, S-9, AROCLOR 1254 (10 OR 30%), Method: PREINCUBATION) was “inactive; negative”. For the same compound, the mutagenic call (Test System: AMES SALMONELLA TYPHIMURIUM, Strain/Indicator: TA97, Metabolic Activation: NONE, Method: PREINCUBATION) was “inactive; negative”, the mutagenic call (Test System: AMES SALMONELLA TYPHIMURIUM, Strain/Indicator: TA97, Metabolic Activation: RAT, LIVER, S-9, AROCLOR 1254 (10 OR 30%), Method: PREINCUBATION) was “inactive; negative” and the mutagenic call (Test System: AMES SALMONELLA TYPHIMURIUM, Strain/Indicator: TA98, Metabolic Activation: HAMSTER, LIVER, S-9, AROCLOR 1254 (10 OR 30%), Method: PREINCUBATION) was “inactive; negative”. The mutagenic call [1] was “inactive; negative”, the mutagenic call (Test System: AMES SALMONELLA TYPHIMURIUM, Strain/Indicator: TA98, Metabolic Activation: NONE, Method: STANDARD PLATE) was “inactive; negative” and the mutagenic call (Test System: AMES SALMONELLA TYPHIMURIUM, Strain/Indicator: TA98, Metabolic Activation: RAT, LIVER, S-9, AROCLOR 1254 (10 OR 30%), Method: PREINCUBATION) was “inactive; negative”. The mutagenic call (Test System: AMES SALMONELLA TYPHIMURIUM, Strain/Indicator: TA98, Metabolic Activation: RAT, LIVER, S-9, AROCLOR 1254, Method: STANDARD PLATE) was “inactive; negative”, the mutagenic call (Test System: AMES SALMONELLA TYPHIMURIUM, Strain/Indicator: TA100, Metabolic Activation: HAMSTER, LIVER, S-9, AROCLOR 1254 (10 OR 30%), Method: PREINCUBATION) was “inactive; negative” and the mutagenic call [2] was “inactive; negative”. The mutagenic call (Test System: AMES SALMONELLA TYPHIMURIUM, Strain/Indicator: TA100, Metabolic Activation: NONE, Method: STANDARD PLATE) was “inactive; negative”, the mutagenic call (Test System: AMES SALMONELLA TYPHIMURIUM, Strain/Indicator: TA100, Metabolic Activation: RAT, LIVER, S-9, AROCLOR 1254 (10 OR 30%), Method: PREINCUBATION) was “inactive; negative” and the mutagenic call (Test System: AMES SALMONELLA TYPHIMURIUM, Strain/Indicator: TA100, Metabolic Activation: RAT, LIVER, S-9, AROCLOR 1254, Method: STANDARD PLATE) was “inactive; negative”. The mutagenic call (Test System: AMES SALMONELLA TYPHIMURIUM, Strain/Indicator: TA1535, Metabolic Activation: HAMSTER, LIVER, S-9, AROCLOR 1254 (10 OR 30%), Method: PREINCUBATION) was “inactive; negative”, the mutagenic call (Test System: AMES SALMONELLA TYPHIMURIUM, Strain/Indicator: TA1535, Metabolic Activation: NONE, Method: PREINCUBATION) was “inactive; negative” and the mutagenic call (Test System: AMES SALMONELLA TYPHIMURIUM, Strain/Indicator: TA1535, Metabolic Activation: NONE, Method: STANDARD PLATE) was “inactive; negative”. The mutagenic call (Test System: AMES SALMONELLA TYPHIMURIUM, Strain/Indicator: TA1535, Metabolic Activation: RAT, LIVER, S-9, AROCLOR 1254 (10 OR 30%), Method: PREINCUBATION) was “inactive; negative”, the mutagenic call (Test System: AMES SALMONELLA TYPHIMURIUM, Strain/Indicator: TA1535, Metabolic Activation: RAT, LIVER, S-9, AROCLOR 1254, Method: STANDARD PLATE) was “inactive; negative” and the mutagenic call (Test System: AMES SALMONELLA TYPHIMURIUM, Strain/Indicator: TA1537, Metabolic Activation: HAMSTER, LIVER, S-9, AROCLOR 1254 (30%), Method: PREINCUBATION) was “inactive; negative”. For the same compound, the mutagenic call (Test System: AMES SALMONELLA TYPHIMURIUM, Strain/Indicator: TA1537, Metabolic Activation: NONE, Method: PREINCUBATION) was “inactive; negative”, the mutagenic call (Test System: AMES SALMONELLA TYPHIMURIUM, Strain/Indicator: TA1537, Metabolic Activation: NONE, Method: STANDARD PLATE) was “inactive; negative” and the mutagenic call (Test System: AMES SALMONELLA TYPHIMURIUM, Strain/Indicator: TA1537, Metabolic Activation: RAT, LIVER, S-9, AROCLOR 1254 (30%), Method: PREINCUBATION) was “inactive; negative”. For the same compound, the mutagenic call (Test System: AMES SALMONELLA TYPHIMURIUM, Strain/Indicator: TA1537, Metabolic Activation: RAT, LIVER, S-9, AROCLOR 1254, Method: STANDARD PLATE) was “inactive; negative”.

`C[C@@]1(CO)[C@H](O)CC[C@@]2(C)[C@H]1CC[C@H]1C[C@@H]3C[C@@]12CC[C@]3(O)CO` was tested, and the mutagenic call (End Point: In vitro chromosomal aberrations, Test System: Human (male) peripheral blood lymphocytes, Metabolic Activation: None) was “active; positive”, the mutagenic call (End Point: In vitro micronucleus, Test System: Human (male) peripheral blood lymphocytes, Metabolic Activation: None) was “active; positive; increased trend in all groups; effect depended on age and genetic stat” and the mutagenic call (Test System: AMES SALMONELLA TYPHIMURIUM, Strain/Indicator: TA102, Metabolic Activation: NONE, Method: STANDARD PLATE) was “inactive; negative”. For the same compound, the mutagenic call (Test System: AMES SALMONELLA TYPHIMURIUM, Strain/Indicator: TA102, Metabolic Activation: RAT, LIVER, S-9, AROCLOR 1254, Method: STANDARD PLATE) was “inactive; negative”, the mutagenic call (Test System: MOUSE LYMPHOMA, Strain/Indicator: L5178Y (TK+/TK-), Metabolic Activation: NONE, Method: SUSPENSION/PLATE) was “active; positive” and the mutagenic call (Test System: UDS RODENT HEPATOCYTES, Strain/Indicator: THY INCORP (NON-S-PHASE), Metabolic Activation: NONE, Method: AUTORADIOGRAPHY) was “inactive; negative”.
